Entries after “also recorded” stand apart in the source; their conditions may differ.
How the values were obtained:
SKOV-3 tumors = assay: Tumor growth inhibition in vivo; settings: nude mice, subcutaneous SKOV-3 tumors; GDC-941 orally, II-a-3 I.P., 50-100 mg/Kg/QD, 21 days
Procedure: Tumor Growth Inhibition In Vivo
The in vivo experiment was performed at Piedmont Research Center (Research Triangle Park, N.C.). Nude mice were implanted with SKOV-3 tumors subcutaneously. […] Dosing continued for 21 days. Tumor volume was measured twice a week.

PI3Kα = PI3Kα (Homo sapiens, UniProt P42336); assay: Trypsin digest and MS-MS analysis of compound-treated PI3Kα; type: binding; design: purchased Millipore 14-602; settings: in-gel trypsin digest
Procedure: (§1) The PI3Kα protein band was then excised and subjected to an in-gel trypsin digest by reducing the protein with DTT, alkylating the thiols with iodoacetamide, and then incubating the protein gel band with trypsin overnight in a 37° C. water bath. The digest was then stopped by addition of trifluoroacetic acid, and peptides were removed from gel band by sonicating with increasing amounts of acetonitrile (0%, 30%, & 60%). Peptides were then purified using C18 ziptips, spotted on the MALDI target plate with α-cyano-4-hydroxycinnamic acid as the desorption matrix (10 mg/ml in 0.1% TFA:Acetonitrile 50:50), and analyzed in reflectron mode.
as §1, with “trifluoro acetic” for “trifluoroacetic”

SKOV3 cells = assay: GI50 determinations in SKOV3 cells; type: cell-based; settings: Homo sapiens, SK-OV-3
HCT116 cells = assay: HCT-116 cell proliferation assay; type: cell-based; settings: Homo sapiens, 72 hours, Cell Titer Glo
Procedure: HCT-116 Cell Proliferation Assay
For the HCT116 Proliferation Assay, 3000 cells per well were plated in Growth Media (DMEM, 10% FBS, 1% 1-glutamine, 1% penicillin/streptomycin) in 96 well plates. The following day, compounds were added to duplicate wells at concentrations of 10 uM and 3-fold dilutions down to 40 nM. The plates were returned to the incubator for 72 hours and then the assays were developed using Cell Titer Glo (Promega, Madison, Wis.) according to manufacturer's instructions.

PI3Kα (p110α/p85α) = target: T1, PI3Kα (p110α/p85α) (Homo sapiens, UniProt P42336); assay: HTRF assay, potency against active PI3Kα; type: biochemical; settings: HTRF; [ATP]=50 μM, [di-C8-PIP2]=10 μM; 30 min pre-incubation; read-out: PI3Kα Inhibition
T1 construct: purchased BPS Bioscience (San Diego, Calif.) or Millipore (Billerica, Mass.)
How it was run: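 Active p110/p85α lipid kinase reactions were started with ATP and run 30-60 minutes at 25 °C, then stopped and developed with HTRF detection mix. HTRF ratio converted to % inhibition against ±enzyme controls; IC50 from log[inhibitor] vs response, variable slope.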

PI3K = PI3K HCT116 cellular assay (Western blot); type: cell-based; settings: Homo sapiens, HCT-116, HCT116 colon cancer cells, 1 hour incubation, read-out: PI3K Inhibition
Procedure: PI3K HCT116 Cellular Assay
Selected compounds were assayed in HCT116 colon cancer cells. […] Cells were then washed with PBS, lysed and the protein lysates were then recovered and analyzed by Western blot.

Chain of PI3Kα (P42336 whole entry): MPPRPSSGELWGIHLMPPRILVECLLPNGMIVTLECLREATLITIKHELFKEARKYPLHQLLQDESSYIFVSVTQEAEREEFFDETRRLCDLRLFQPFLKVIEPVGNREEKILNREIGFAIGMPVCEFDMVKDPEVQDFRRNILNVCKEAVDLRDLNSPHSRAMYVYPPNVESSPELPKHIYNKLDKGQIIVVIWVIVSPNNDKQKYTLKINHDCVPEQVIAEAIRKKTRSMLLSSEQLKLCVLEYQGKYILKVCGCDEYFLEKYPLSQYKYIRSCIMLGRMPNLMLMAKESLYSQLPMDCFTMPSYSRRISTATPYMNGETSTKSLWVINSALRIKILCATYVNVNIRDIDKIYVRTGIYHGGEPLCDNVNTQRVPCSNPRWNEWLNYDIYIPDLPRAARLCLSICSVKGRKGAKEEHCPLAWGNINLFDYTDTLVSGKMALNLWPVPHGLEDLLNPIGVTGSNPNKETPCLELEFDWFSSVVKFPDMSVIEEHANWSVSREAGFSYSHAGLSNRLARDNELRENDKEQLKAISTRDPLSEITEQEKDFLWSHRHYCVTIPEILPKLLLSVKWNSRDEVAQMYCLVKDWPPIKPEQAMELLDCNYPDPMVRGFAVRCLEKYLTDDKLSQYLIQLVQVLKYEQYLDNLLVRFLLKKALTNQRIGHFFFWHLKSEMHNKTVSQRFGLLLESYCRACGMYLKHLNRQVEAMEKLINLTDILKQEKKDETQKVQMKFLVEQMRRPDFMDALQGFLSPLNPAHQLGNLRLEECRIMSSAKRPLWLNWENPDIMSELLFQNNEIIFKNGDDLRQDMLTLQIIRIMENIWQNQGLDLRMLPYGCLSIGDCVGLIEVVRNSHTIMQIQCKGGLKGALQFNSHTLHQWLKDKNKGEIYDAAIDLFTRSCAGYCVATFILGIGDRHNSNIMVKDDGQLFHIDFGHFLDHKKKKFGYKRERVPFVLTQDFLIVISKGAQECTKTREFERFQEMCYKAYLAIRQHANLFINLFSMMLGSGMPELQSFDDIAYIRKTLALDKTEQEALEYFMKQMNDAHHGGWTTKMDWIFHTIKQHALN
Chain of PI3Kα (P27986 whole entry partner): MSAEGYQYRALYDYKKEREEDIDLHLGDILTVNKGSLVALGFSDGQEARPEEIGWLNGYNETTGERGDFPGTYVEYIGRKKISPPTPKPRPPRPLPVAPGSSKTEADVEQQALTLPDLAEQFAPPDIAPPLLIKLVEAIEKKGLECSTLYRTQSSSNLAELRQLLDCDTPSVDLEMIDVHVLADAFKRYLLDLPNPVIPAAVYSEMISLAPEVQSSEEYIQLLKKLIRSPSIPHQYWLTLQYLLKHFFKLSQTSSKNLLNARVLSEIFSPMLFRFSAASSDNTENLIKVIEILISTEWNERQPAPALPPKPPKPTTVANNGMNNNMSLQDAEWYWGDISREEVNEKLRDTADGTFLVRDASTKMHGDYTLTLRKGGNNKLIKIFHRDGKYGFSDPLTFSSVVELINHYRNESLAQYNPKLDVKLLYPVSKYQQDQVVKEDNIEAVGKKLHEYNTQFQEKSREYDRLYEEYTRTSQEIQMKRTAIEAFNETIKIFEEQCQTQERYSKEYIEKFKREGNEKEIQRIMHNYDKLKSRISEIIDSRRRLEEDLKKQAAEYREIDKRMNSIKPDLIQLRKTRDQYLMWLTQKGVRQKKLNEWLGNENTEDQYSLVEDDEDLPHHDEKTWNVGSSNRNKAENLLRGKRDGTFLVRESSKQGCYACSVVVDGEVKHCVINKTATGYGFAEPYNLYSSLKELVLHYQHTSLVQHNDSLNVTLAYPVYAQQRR
T1 sequence (P42336 whole entry): as the sequence (P42336 whole entry) above
T1 sequence (P27986 whole entry partner): as the sequence (P27986 whole entry partner) above

| EC50 (HCT116 cells) [nM] | IC50 (PI3Kα (p110α/p85α)) [nM] | EC50 (PI3K) [nM] | Structure (SMILES) | tumor growth (SKOV-3 tumors) | site on PI3Kα that is covalently modified (PI3Kα) | GI50 (SKOV3 cells; SKOV3 cells, 96 hours, Cell Titer Glo) [nM] | GI50 (SKOV3 cells; Table 19, assay not given, classes agree with Table 26) [nM] |
| --- | --- | --- | --- | --- | --- | --- | --- |
|  |  |  | CC(C)=CC(=O)CCC(=O)N1CCN(Cc2cc3nc(-c4cccc5[nH]ncc45)nc(N4CCOCC4)c3s2)CC1 [II-a-3, 1-(4-((2-(1H-indazol-4-yl)-4-morpholinothieno[3,2-d]pyrimidin-6-yl)methyl)piperazin-1-yl)-6-methylhept-5-ene-1,4-dione] | Inhibition of tumor growth | Cys-862; also recorded: peptide ^853NSHTIMQIQCK^863 | 10 to 100 | 10 to 100 |
| 1000 to 10000 | < 10 | < 20 | C/C=C/C(=O)CCC(=O)N1CCN(Cc2cc3nc(-c4cccc5[nH]ncc45)nc(N4CCOCC4)c3s2)CC1 [II-a-36, (E)-1-(4-((2-(1H-indazol-4-yl)-4-morpholinothieno[3,2-d]pyrimidin-6-yl)methyl)piperazin-1-yl)hept-5-ene-1,4-dione] |  |  |  |  |
